Results reported in patent US20070032502A1, “Quinazoline derivatives useful in cancer treatment” (Schering Corporation, priority 2005, published 2007).
Where two headings read alike, the source gives them in different places. Each block holds one molecule with its values, some of them ahead of it.

How the values were obtained:
[1] = target: GST-p53 DNA binding domain (aa 92-aa 312) (Homo sapiens, UniProt P04637); test: Scintillation Proximity Assay (SPA), displacement of 3H STANDARD COMPOUND; settings: for remaining activity at 2 µg/mL: 1 h
Sequence of GST-p53 DNA binding domain (aa 92-aa 312) (P04637 92-312): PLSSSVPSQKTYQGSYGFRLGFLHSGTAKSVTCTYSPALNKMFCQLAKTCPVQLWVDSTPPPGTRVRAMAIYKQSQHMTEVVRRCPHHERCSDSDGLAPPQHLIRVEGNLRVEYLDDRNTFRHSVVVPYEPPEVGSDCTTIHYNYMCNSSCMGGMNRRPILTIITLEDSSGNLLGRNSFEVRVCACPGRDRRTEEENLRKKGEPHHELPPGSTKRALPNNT
Excerpt: Most of the oncogenic mutants of the tumor suppressor protein p53 lack sequence specific DNA binding activity at physiological temperature due to conformational changes in the DNA binding domain. Small molecules and peptide which bind to the p53 DNA binding domain stabilize the conformation and restore DNA binding activity to mutant p53 protein (Science 286, 2507-2510, 1999; PNAS, 99, 937-942, 2002). Using ^3H STANDARD COMPOUND (which is ^3H of the compound #1 of the present invention; the * Carbon atom is the one labeled; structure shown below), [drawing 2234] a radio labeled small molecule which binds to p53, and the GST-p53 DNA binding domain (aa 92-aa 312), we have developed a quantitative screening assay. The assay is based on Scintillation Proximity Assay (SPA) technology, developed by Amersham Biosciences to measure molecular interactions. Briefly, the complex of GST-p53, ^3H STANDARD and Glutathione-SPA beads (Amersham Biosciences) are incubated with mixing for 1 hr at room temperature in the presence of the novel compounds to be screened. The signal is read on Microbeta. The compounds which have the ability to displace ^3H STANDARD COMPOUND are selected. Such molecules will stabilize the conformation and restore DNA binding activity to mutant p53 protein.
The above assay was used to determine the ability of the compounds of this invention to restore DNA binding activity to mutant p53 and the results for selected compounds have been given above in various tables.
A letter rating corresponding to % Residual total binding (T) @ 2 ug/mL of drug (i.e., compound of the present invention) from this assay have been assigned as follows: Compounds having % Residual T values of from 0% to less than 20% have been assigned the letter “A”. Compounds having % Residual T values of from 20% to less than 40% have been assigned the letter “B”. Compounds having % Residual T values of from 40% to less than 80% have been assigned the letter “C”. Compounds having % Residual T values of 80% or higher have been assigned the letter “D”. The exact % Residual T values @ 2 ug/mL for some illustrative compounds are shown below: […]

[2] = test system: Human tumor DLD1 cells containing mutant p53; test: Soft agar assay (colony outgrowth); format: cell-based; settings: DLD-1, 10-16 days
Procedure: This method assesses the ability of cells to grow in the absence of adhesion, which is a characteristic of tumorigenic cell lines.
Human tumor DLD1 cells containing mutant p53 are suspended in growth medium containing 0.3% agarose and an indicated concentration of small molecule. The solution is overlayed onto growth medium solidified with 0.6% agarose containing the same concentration of the small molecule as the top layer. After the top layer is solidified the plates are incubated for 10-16 days at 37° C. under 5% CO2 to allow colony outgrowth. After incubation, colonies are stained by overlaying the agar with a solution of MTT (3-[4,5-dimethyl-thiazol-2-yl]-2,5-diphenyltetrazolium bromide; Thiazolyl blue; […] in PBS). Colonies are counted to measure growth and efficacy of the small molecule.

MB468 = test: Proliferation assay (Calcein AM viability, 72 hours); format: cell-based
Procedure: This assay measures the growth suppression effects of small molecules in cells with mutant p53 vs. p53 null background. It uses Calcein AM to measure cellular viability. Cells (p53 null and mutant) are harvested and plated at 5000 cells per well in a 96-well tissue culture plate. The volume of cells in growth media is 100 µl. Serial dilutions (2× concentration) of compounds are then made and transferred to the plate of cells. The volume of compounds in the growth media is 100 μL. This dilution of compound with cells gives a 1× final dilution of compound (200 μL total volume). Plates are then incubated at 37° C. for 72 hours. Media is then poured off and Calcein AM is added at the appropriate concentration and the plates are incubated in the dark for 15 minutes and read for fluorescence. […] Compounds having EC50 values of 6 uM or higher have been assigned the letter “D”. These letter rating has been used throughout in the data tables above.

pancreatic cells = test: Potentiation of growth suppression with temozolomide (proliferation assay, temozolomide IC50); format: cell-based; settings: for IC50: Homo sapiens, TMZ alone
Procedure: (§1) That the compounds of the present invention potentiate the growth suppression activity of temozolomide is illustrated by the fact that the compounds lower the temolozomide IC50 in various cell lines. The proliferation assay used is similar to that set forth above, and comprises the following general steps. • TMZ is diluted 2 fold in complete medium. • Cells are harvested and placed in each well with diluted TMZ. Cell conc. is 5000 cells per well in complete medium. • Appropriate concentration of compounds of present invention are then added to each well in combination with diluted TMZ. • Plates are incubated at 37° C. for 72 hrs. • Medium is poured off and 50 μL per well of Calcein AM (10 uM is added. Plate is then read in the fluorescent plate reader.
The extent of increase can be quantitated as is shown below in FIG. 5.

LN 18 = test: Potentiation of growth suppression with temozolomide (proliferation assay, temozolomide IC50), LN 18 glioma cells; format: cell-based; settings: Homo sapiens, p53 mutant, TMZ alone
Procedure: as §1

U87 = test: Potentiation of growth suppression with temozolomide (proliferation assay, temozolomide IC50), U87 glioma cells; format: cell-based; settings: Homo sapiens, U-87 MG, p53 wild, TMZ alone
Procedure: as §1

[3] = 2 ug/mL of drug, lower is better, read-out: SPA ASSAY % Residual T @ 2 ug/mL of drug (Average of)
[4] = 72 h, MB468 cells, 72 hours, read-out: PROLIFERATION ASSAY EC50 MB468
[5] = read-out: SPA ASSAY (% residual T @ 2 ug/mL of drug)
[6] = MB468, read-out: PROLIFERATION ASSAY EC50 MB468

SMILES: CN(C)CCCNc1nc(CN2CCN(C(c3ccc(Cl)cc3)c3ccc(Cl)cc3)CC2)nc2ccccc12 [Example 1, N′-(2-{4-[BIS-(4-CHLOROPHENYL)METHYL]PIPERAZIN-1-YLMETHYL}QUINAZOLIN-4-YL)-N,N-DIMETHYLPROPANE-1,3-DIAMINE]
remaining activity at 2 µg/mL ([1]; 2 ug/mL of drug, lower is better, read-out: % Residual T @ 2 ug/mL rating according to scintillation proximity assay (SPA)): 0 to 20%
remaining activity at 2 µg/mL [1, 3]: 16.1%
IC50 [2]: 0.39 µM
EC50 (MB468; 72 h, MB468 cells, 72 hours, read-out: EC50 rating according to the proliferation assay (MB468)): < 2 µM
EC50 (MB468; [4]): 1.1 µM

SMILES: CN(C)CCCNc1nc(CN2CCN(Cc3cccc4ccccc34)CC2)nc2ccccc12 [Example 25-36]
SPA Assay (% residual T @ 2 ug/mL of drug) ([1]; 2 ug/mL of drug): B (Compounds having % Residual T values of from 20% to less than 40% have been assigned the letter “B”)
remaining activity at 2 µg/mL [1, 3]: 27.9%
sensitivity of pancreatic cancer cells to temozolomide (pancreatic cells; in combination with temozolomide, 72 hrs): increase in sensitivity
EC50 (MB468; [4]): 2 µM
EC50 (MB468; MB468 cells, read-out: PROFILE-RATION ASSAY EC50 MB468): 4 to 6 µM

SMILES: Cn1nnc2c(C(N)=O)ncn2c1=O [TMZ, temozolomide]
IC50 (LN 18): 2700 µM
IC50 (U87): 2540 µM
IC50 (pancreatic cells; MIA PaCa-2, Miapaca-2, Pancreas, p53 mutant): 3320 µM
IC50 (pancreatic cells; Capan-1, Pancreas, p53 mutant): 2860 µM
IC50 (pancreatic cells; Capan-2, Pancreas, p53 wild): 4310 µM

Continued, in another order:

remaining activity at 2 µg/mL [1, 5]: > 80%
SMILES: CCN(CC)C(=O)C1CCCN(c2nc(CN3CCN(C(c4ccc(Cl)cc4)c4ccc(Cl)cc4)CC3)nc3ccccc23)C1 (stereo not drawn) [Example 30-25]
EC50 (MB468; [6]): > 6 µM

remaining activity at 2 µg/mL [1, 5]: 40 to 80%
SMILES: CN(C)[C@@H]1CCN(c2nc(CN3CCN(C(c4ccc(Cl)cc4)c4ccc(Cl)cc4)CC3)nc3ccccc23)C1 [Example 30-26]
EC50 (MB468; [6]): > 6 µM

remaining activity at 2 µg/mL [1, 5]: > 80%
SMILES: OC1CCN(c2nc(CN3CCN(C(c4ccc(Cl)cc4)c4ccc(Cl)cc4)CC3)nc3ccccc23)CC1 [Example 30-27]
EC50 (MB468; [6]): 4 to 6 µM

remaining activity at 2 µg/mL [1, 5]: > 80%
SMILES: NC(=O)C1CCN(c2nc(CN3CCN(C(c4ccc(Cl)cc4)c4ccc(Cl)cc4)CC3)nc3ccccc23)CC1 [Example 30-28]
EC50 (MB468; [6]): > 6 µM

remaining activity at 2 µg/mL [1, 5]: > 80%
SMILES: COC(=O)C1CCN(c2nc(CN3CCN(C(c4ccc(Cl)cc4)c4ccc(Cl)cc4)CC3)nc3ccccc23)CC1 [Example 30-29]
EC50 (MB468; [6]): 4 to 6 µM

remaining activity at 2 µg/mL [1, 5]: 40 to 80%
SMILES: O=c1[nH]c2ccccc2n1C1CCN(c2nc(CN3CCN(C(c4ccc(Cl)cc4)c4ccc(Cl)cc4)CC3)nc3ccccc23)CC1 [Example 30-30]
EC50 (MB468; [6]): 4 to 6 µM
